Data as given in the supplement of paper PMC10627819.

Columns and labels:
[1] = tested on: B. subtilis 168; experiment: fitness (endpoint OD595 vs no drug) (fraction); higher = more growth
In short: (§1)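 Plates with 384 wells were inoculated at OD595 0.01 using 30 µl of TSB, LB Lennox or CY, or 55 µl for S. pneumoniae. Incubation was at 37 °C, with OD595 measured every 30 min for 14 h. Fitness is the stationary-phase transition optical density over the robust mean of no-drug control wells, after first-reading background subtraction; it is capped at 1.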

[2] = tested on: S. aureus DSM 20231; experiment: as above
In short: as §1

[3] = tested on: S. aureus Newman; experiment: as above
In short: as §1

[4] = tested on: S. pneumoniae D39V; experiment: as above
In short: as §1

[5] = tested on: B. subtilis 168; experiment: Bliss interaction score (quartile over a dose matrix) (fitness difference); higher = more antagonism (negative = synergy)
In short: (§2)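 Growth was read as OD595 when cultures entered stationary phase, and each value was divided by the plate's robust no-drug mean and capped at 1. This normalised ratio is the fitness value, and fitness for each single drug came from the combination data. The Bliss score subtracts the expected fitness, taken as the product, from the observed fitness and is given as quartiles across technical, biological and donor/recipient replicates.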

[6] = tested on: S. aureus DSM 20231; experiment: as above
In short: as §2

[7] = tested on: S. aureus Newman; experiment: as above
In short: as §2

[8] = tested on: S. pneumoniae D39V; experiment: as above
In short: as §2
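Wherever Bliss interaction score (quartile over a dose matrix) is given: first quartile when negative (synergy) and third quartile when positive (antagonism).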

CCN(CC)CCOC(=O)c1ccc(N)cc1 [Procaine] + CN(N=O)C(=O)N[C@@H](C=O)[C@@H](O)[C@H](O)[C@H](O)CO [Streptozotocin]
fitness, [1], one replicate
Details | first compound 85.5 µg/mL | first compound 171 µg/mL | first compound 342 µg/mL
partner 0.15 µg/mL | 0.98 | 0.945 | 0.891
partner 0.3 µg/mL | 0.948 | 0.988 | 0.954
partner 0.6 µg/mL | 0.901 | 0.944 | 0.881

fitness
Details | first compound 85.5 µg/mL | first compound 171 µg/mL | first compound 342 µg/mL
[2], partner 0.15 µg/mL | 0.822 | 0.848 | 0.851
[2], partner 0.3 µg/mL | 0.724 | 0.799 | 0.786
[2], partner 0.6 µg/mL | 0.593 | 0.682 | 0.651
[3], partner 0.15 µg/mL | 0.894 | 0.85 | 0.904
[3], partner 0.3 µg/mL | 0.809 | 0.798 | 0.799
[3], partner 0.6 µg/mL | 0.624 | 0.602 | 0.617
[4], partner 1.2 µg/mL | 0.977 | 0.994 | 0.963
[4], partner 2.4 µg/mL | 0.994 | ≥ 1 | 0.945
[4], partner 4.8 µg/mL | 0.993 | ≥ 1 | 0.961

Details | Bliss interaction score
[5] | 0.0445
[6] | -0.076
[7] | 0.0489
[8] | 0.0574

CCCCCCCCCC(=O)N[C@@H](Cc1c[nH]c2ccccc12)C(=O)N[C@H](CC(N)=O)C(=O)N[C@@H](CC(=O)O)C(=O)N[C@@H]1C(=O)NCC(=O)N[C@@H](CCCN)C(=O)N[C@@H](CC(=O)O)C(=O)N[C@H](C)C(=O)N[C@@H](CC(=O)O)C(=O)NCC(=O)N[C@H](CO)C(=O)N[C@@H]([C@H](C)CC(=O)O)C(=O)N[C@@H](CC(=O)c2ccccc2N)C(=O)O[C@@H]1C [Daptomycin] + COc1cccc2c1C(=O)c1c(O)c3c(c(O)c1C2=O)C[C@@](O)(C(=O)CO)C[C@@H]3O[C@H]1C[C@H](N)[C@H](O)[C@H](C)O1 [Doxorubicin]
Details | fitness
[1], first compound 0.125 µg/mL, partner 0.625 µg/mL | 0.93
[1], first compound 0.125 µg/mL, partner 1.25 µg/mL | 0.905
[1], first compound 0.125 µg/mL, partner 2.5 µg/mL | 0.628
[1], first compound 0.25 µg/mL, partner 0.625 µg/mL | 0.93
[1], first compound 0.25 µg/mL, partner 1.25 µg/mL | 0.911
[1], first compound 0.5 µg/mL, partner 0.625 µg/mL | 0.84
[2], first compound 0.5 µg/mL, partner 0.625 µg/mL | 0.91
[2], first compound 0.5 µg/mL, partner 1.25 µg/mL | 0.935
[2], first compound 0.5 µg/mL, partner 2.5 µg/mL | 0.829
[2], first compound 1 µg/mL, partner 0.625 µg/mL | 0.887
[2], first compound 1 µg/mL, partner 1.25 µg/mL | 0.961
[2], first compound 1 µg/mL, partner 2.5 µg/mL | 0.852
[2], first compound 2 µg/mL, partner 0.625 µg/mL | 0.926
[2], first compound 2 µg/mL, partner 1.25 µg/mL | 0.914
[2], first compound 2 µg/mL, partner 2.5 µg/mL | 0.841
[3], first compound 0.125 µg/mL, partner 0.625 µg/mL | 0.867
[3], first compound 0.125 µg/mL, partner 1.25 µg/mL | 0.865
[3], first compound 0.125 µg/mL, partner 2.5 µg/mL | 0.739
[3], first compound 0.25 µg/mL, partner 0.625 µg/mL | 0.869
[3], first compound 0.25 µg/mL, partner 1.25 µg/mL | 0.851
[3], first compound 0.25 µg/mL, partner 2.5 µg/mL | 0.748
[3], first compound 0.5 µg/mL, partner 0.625 µg/mL | 0.829
[3], first compound 0.5 µg/mL, partner 1.25 µg/mL | 0.834
[3], first compound 0.5 µg/mL, partner 2.5 µg/mL | 0.755
[4], first compound 1 µg/mL, partner 0.25 µg/mL | 0.86
[4], first compound 1 µg/mL, partner 0.5 µg/mL | 0.876
[4], first compound 1 µg/mL, partner 1 µg/mL | 0.669
[4], first compound 2 µg/mL, partner 0.25 µg/mL | 0.936
[4], first compound 2 µg/mL, partner 0.5 µg/mL | 0.875
[4], first compound 2 µg/mL, partner 1 µg/mL | 0.721
[4], first compound 4 µg/mL, partner 1 µg/mL | 0.686

[1], first compound 1 µg/mL, one replicate
Details | fitness
partner 0.625 µg/mL | 0.783
partner 1.25 µg/mL | 0.645
partner 2.5 µg/mL | 0.197

Details | Bliss interaction score
[5] | 0.0744
[6] | 0.0493
[7] | -0.0594
[8] | 0.0772

CCCCCCCCCC(=O)N[C@@H](Cc1c[nH]c2ccccc12)C(=O)N[C@H](CC(N)=O)C(=O)N[C@@H](CC(=O)O)C(=O)N[C@@H]1C(=O)NCC(=O)N[C@@H](CCCN)C(=O)N[C@@H](CC(=O)O)C(=O)N[C@H](C)C(=O)N[C@@H](CC(=O)O)C(=O)NCC(=O)N[C@H](CO)C(=O)N[C@@H]([C@H](C)CC(=O)O)C(=O)N[C@@H](CC(=O)c2ccccc2N)C(=O)O[C@@H]1C [Daptomycin] + COc1c(N2C[C@@H]3CCCN[C@@H]3C2)c(F)cc2c(=O)c(C(=O)O)cn(C3CC3)c12 [Moxifloxacin]
Details | fitness
[1], first compound 0.125 µg/mL, partner 0.0312 µg/mL | 0.0461
[1], first compound 0.125 µg/mL, partner 0.0625 µg/mL | 0.0437
[1], first compound 0.125 µg/mL, partner 0.125 µg/mL | 0.0394
[1], first compound 0.125 µg/mL, partner 2 µg/mL | 0.0342
[1], first compound 0.125 µg/mL, partner 4 µg/mL | 0.0583
[1], first compound 0.125 µg/mL, partner 8 µg/mL | 0.0431
[1], first compound 0.25 µg/mL, partner 0.0312 µg/mL | 0.0537
[1], first compound 0.25 µg/mL, partner 0.0625 µg/mL | 0.0246
[1], first compound 0.25 µg/mL, partner 0.125 µg/mL | 0.019
[1], first compound 0.25 µg/mL, partner 2 µg/mL | 0.0893
[1], first compound 0.25 µg/mL, partner 4 µg/mL | 0.0796
[1], first compound 0.25 µg/mL, partner 8 µg/mL | 0.124
[1], first compound 0.5 µg/mL, partner 0.0312 µg/mL | 0.0547
[1], first compound 0.5 µg/mL, partner 0.0625 µg/mL | 0.026
[1], first compound 0.5 µg/mL, partner 0.125 µg/mL | 0.0309
[1], first compound 0.5 µg/mL, partner 2 µg/mL | 0.0708
[1], first compound 0.5 µg/mL, partner 4 µg/mL | 0.044
[1], first compound 0.5 µg/mL, partner 8 µg/mL | 0.0672
[2], first compound 0.5 µg/mL, partner 0.0075 µg/mL | 0.776
[2], first compound 0.5 µg/mL, partner 0.015 µg/mL | 0.754
[2], first compound 0.5 µg/mL, partner 0.03 µg/mL | 0.673
[2], first compound 1 µg/mL, partner 0.0075 µg/mL | 0.837
[2], first compound 1 µg/mL, partner 0.015 µg/mL | 0.786
[2], first compound 1 µg/mL, partner 0.03 µg/mL | 0.696
[2], first compound 2 µg/mL, partner 0.0075 µg/mL | 0.761
[2], first compound 2 µg/mL, partner 0.015 µg/mL | 0.749
[2], first compound 2 µg/mL, partner 0.03 µg/mL | 0.655
[3], first compound 0.125 µg/mL, partner 0.0075 µg/mL | 0.751
[3], first compound 0.25 µg/mL, partner 0.0075 µg/mL | 0.744
[3], first compound 0.25 µg/mL, partner 0.015 µg/mL | 0.636
[3], first compound 0.5 µg/mL, partner 0.0075 µg/mL | 0.774
[4], first compound 1 µg/mL, partner 0.005 µg/mL | 0.947
[4], first compound 1 µg/mL, partner 0.01 µg/mL | 0.965
[4], first compound 1 µg/mL, partner 0.02 µg/mL | 0.846
[4], first compound 1 µg/mL, partner 0.0312 µg/mL | 0.0587
[4], first compound 1 µg/mL, partner 0.0625 µg/mL | 0.0444
[4], first compound 1 µg/mL, partner 0.125 µg/mL | 0.0384
[4], first compound 2 µg/mL, partner 0.005 µg/mL | 0.946
[4], first compound 2 µg/mL, partner 0.01 µg/mL | 0.951
[4], first compound 2 µg/mL, partner 0.02 µg/mL | 0.826
[4], first compound 2 µg/mL, partner 0.0312 µg/mL | 0.0617
[4], first compound 2 µg/mL, partner 0.0625 µg/mL | 0.0424
[4], first compound 2 µg/mL, partner 0.125 µg/mL | 0.0433
[4], first compound 4 µg/mL, partner 0.005 µg/mL | 0.95
[4], first compound 4 µg/mL, partner 0.01 µg/mL | 0.988
[4], first compound 4 µg/mL, partner 0.02 µg/mL | 0.885
[4], first compound 4 µg/mL, partner 0.0312 µg/mL | 0.0587
[4], first compound 4 µg/mL, partner 0.0625 µg/mL | 0.0393
[4], first compound 4 µg/mL, partner 0.125 µg/mL | 0.0263

fitness, one replicate
Details | first compound 0.5 µg/mL | first compound 1 µg/mL | first compound 2 µg/mL
[1], partner 0.0312 µg/mL | – | 0.0152 | –
[1], partner 0.0625 µg/mL | – | 0.0268 | –
[1], partner 0.125 µg/mL | – | 0.0146 | –
[2], partner 0.06 µg/mL | 0.667 | 0.654 | 0.637
[2], partner 0.12 µg/mL | 0.49 | 0.46 | 0.46

Details | Bliss interaction score
[5] | -0.0294
[6] | -0.0667
[7] | 0.0375
[8] | -0.0679
